From US11013717B1, “Methods and compositions for treating cancer using SERCA pump inhibitors” (priority 2018, dated 2021)

Tested on: CD8+ T-cells isolated from human PBMCs
Experiment: Activation of anti-CD3/anti-CD28 stimulated CD8+ T-cells treated with SERCA inhibitors, cytokine release (IFNγ, TNFα) by intracellular staining flow cytometry
Assay type: cell-based
Conditions: for Fold Change % IFNγ+ Cells (Normalized to Bead Stimulated Only): overnight, anti-CD3/anti-CD28 bead stimulated human CD8+ T-cells; for T cell activation / interferon gamma (IFNγ) production / secretion by CD8+ T cells: human CD8+ T-cells stimulated with anti-CD3/anti-CD28 beads, overnight incubation, thapsigargin 1.5 μM, cyclopiazonic acid 3 μM, NS-1619 30-100 μM; for T cell activation: activation measured by cytokine release
Method: CD8+ T-cells were isolated from human PBMCs using negative magnetic bead selection (Stemcell Technologies). Cells stimulated with anti-CD3/anti-CD28 beads (Life Technologies) and were treated with different SERCA inhibitors: thapsigargin (1.5 μM), cyclopiazonic acid (3 μM), and NS-1619 (30-100 μM). All incubations were done overnight. Subsequent activation was measured by cytokine release using intracellular staining flow cytometry of IFNγ and TNFα, using fluorescently labeled antibodies (Biolegend).

Row | Compound | Fold Change % IFNγ+ Cells (Normalized to Bead Stimulated Only) (30 μM) | Fold Change % IFNγ+ Cells (Normalized to Bead Stimulated Only) (100 μM) | T cell activation | interferon gamma (IFNγ) production / secretion by CD8+ T cells | Fold Change % IFNγ+ Cells (Normalized to Bead Stimulated Only) (3 μM) | Fold Change % IFNγ+ Cells (Normalized to Bead Stimulated Only) (1.5 μM)
1 | O=c1[nH]c2cc(C(F)(F)F)ccc2n1-c1cc(C(F)(F)F)ccc1O [NS-1619] | 1.1 fold | 2.68 fold | led to T cell activation | increased |  | 
2 | CC(=O)C1=C(O)[C@@H]2[C@H]3c4c[nH]c5cccc(c45)C[C@H]3C(C)(C)N2C1=O [cyclopiazonic acid] |  |  |  |  | 2.38 fold | 
3 | C/C=C(/C)C(=O)O[C@H]1C(C)=C2[C@H]([C@@H]1OC(=O)CCCCCCC)[C@@](C)(OC(C)=O)C[C@H](OC(=O)CCC)[C@@]1(O)[C@H]2OC(=O)[C@@]1(C)O [thapsigargin] |  |  | led to T cell activation | increased |  | 2.08 fold
